According to patent US20140219931A1, “P-MENTHANE-3,8-DIOL ISOMER MIXTURE, COOLING SENSATION COMPOSITION COMPRISING THE SAME, AND PRODUCT COMPRISING THE COOLING SENSATION COMPOSITION” (TAKASAGO INTERNATIONAL CORPORATION, priority 2011, published 2014):

Experiments:
[1] = system: mouth of professional panelists; experiment: Test Experiment 1: sensory evaluation of cooling sensation strength in the mouth; format: in vivo, human; details: 180 ppm aqueous solution in the mouth, 10 panelists; relative score, Comparative Example 1 taken as 3
Method: (§1) [Test Experiment 1] Sensory Evaluation for Comparison of Cooling Sensation Strength between (1S)-p-Menthane-3,8-diol Isomer Mixture, (1RS)-p-Menthane-3,8-diol Isomer Mixture, and (1R)-p-Menthane-3,8-diol Isomer Mixture Aqueous solutions containing 180 ppm of the (1S)-p-menthane-3,8-diol isomer mixture, the (1RS)-p-menthane-3,8-diol isomer mixture, and the (1R)-p-menthane-3,8-diol isomer mixture obtained in Example 1, Example 2, and Comparative Example 1, respectively, were prepared. Sensory evaluation was conducted in the mouth on these 180 ppm aqueous solutions by 10 professional panelists having 5-year or longer experience.

[2] = system: mouth of professional panelists; experiment: Test Experiment 2: sensory evaluation of cooling sensation persistence in the mouth; format: in vivo, human; details: for Cooling sensation persistence time: 180 ppm aqueous solution retained in the mouth 30 seconds, then spit out, time until cooling sensation disappeared, average of 10 panelists; for persistence of cooling sensation effect relative to the (1R)-p-menthane-3,8-diol isomer mixture: 180 ppm aqueous solution, from Table 2
Method: as §1, with “2]” for “1]”, “Persistence” for “Strength”, “experience. In the sensory evaluation, each 180 ppm aqueous solution was retained in the month for 30 seconds, and then spit out. After that, the time taken until the cooling sensation disappeared was measured, and the average was calculated to evaluate the effect.” for “experience.”

Row | Structure (SMILES) | Average cooling sensation strength score [1] | Cooling sensation persistence time [2] [min] | persistence of cooling sensation effect relative to the (1R)-p-menthane-3,8-diol isomer mixture [2]
1 | CC1CCC(C(C)(C)O)C(O)C1 (racemic) [Example 2, (1RS)-p-menthane-3,8-diol isomer mixture] | 9 | 9.8 | approximately 2.3 times
2 | C[C@H]1CCC(C(C)(C)O)C(O)C1 (mixture of isomers) [Example 1, (1S)-p-menthane-3,8-diol isomer mixture] | 15 | 15.5 | approximately 3.6 times
3 | C[C@@H]1CCC(C(C)(C)O)C(O)C1 (mixture of isomers) [Comparative Example 1, (1R)-p-menthane-3,8-diol isomer mixture, reference compound] | 3 | 4.3 | 
